Test results published in article PMC6327263, “Evaluation of Novel 3-Hydroxyflavone Analogues as HDAC Inhibitors against Colorectal Cancer” (Advances in Pharmacological Sciences, 2018).
Like-named read-outs stand apart in the source and are kept apart here.

Tests used:
[1] = tested on: HDAC enzyme in HCT116 cells; test: Whole cell HDAC inhibition assay; format: cell-based; conditions: Homo sapiens, HCT-116, HCT116, 18 h treatment, mean ± SEM of three experiments
Protocol: Confluent HCT116 cells were harvested and seeded in 96 well sterile black well plates at a density of 2000 cells per well and incubated overnight. Furthermore, the cells were treated with different concentrations of test compounds for a period of 18 h followed by the addition of […] BOC-Ac-Lys-AMC substrate and incubated for 1 h. […] The reaction was then allowed to proceed for 15 min at 37°C. Finally, the fluorescence intensity was measured at 360 nm excitation and 460 nm emission using a fluorescence microplate reader (FLx800, BioTek Instruments Inc., Winooski, VT, USA).

HCT116 cells [2] = test: Annexin V staining; format: cell-based, human; conditions: SAHA 5 µM, quercetin 100 µM, QMJ-2 100 µM, QMJ-5 50 µM, normal control 21.30%
Protocol: Mechanism of cell death induced by synthesized analogues was determined using annexin V staining. In brief, as per annexin V flow cytometry kit protocol (#MCH100105), 1 × 10^6 cells were seeded in a cell culture dish and after overnight adherence, were incubated with test compounds. Cells were then detached by trypsinization, centrifuged, and washed with PBS. Cell suspension (100 µl) was mixed with Muse annexin V reagent (100 µl) and incubated for 20 min at room temperature. The stained cells were quantitatively analyzed for live, early, and late apoptosis using Muse cell analyzer (#0500-3115 Merck Millipore).

HCT116 cells [3] = test: MTT cytotoxicity assay, HCT116; format: cell-based, human; conditions: for cytotoxicity in HCT116 relative to inhibitory concentration in normal (Vero) cell line: HCT116 vs Vero; for IC50: Homo sapiens, HCT-116, 48 h, mean ± SEM of three experiments
Protocol: Human colorectal carcinoma cell line (HCT116) and African green monkey kidney epithelial cells (VERO) were obtained from National Centre for Cell Science, Pune, MH, India. For their maintenance, the cells were grown in Dulbecco's Modified Eagle's Medium (DMEM) which was supplemented with 10% fetal bovine serum (FBS) and 1 × penicillin/streptomycin at 37°C in CO2 incubator (NU-5501E/G, NuAire Inc., Plymouth, MN, USA) in a humidified atmosphere of 5% CO2 and 95% air.
Cytotoxicity for the synthesized analogues was determined using MTT assay. In brief, HCT116 and VERO cells were harvested from the tissue culture flask and seeded in sterile 96 well plates at a density of 5000 cells per well. After overnight adherence, different concentrations of test compounds were added and incubated for 48 h. Next, 50 µl of the MTT reagent (HiMedia Laboratories, Mumbai, India) (2 mg/ml in the sterile phosphate buffer saline (PBS)) was added into each well and incubated for 3 h. The formazan crystals formed were solubilized using 100% dimethyl sulfoxide (DMSO), and the optical density was measured at 540 nm using the microplate reader (ELx800, BioTek Instruments Inc., Winooski, VT, USA).

[4] = target: T1, recombinant human HDAC1 enzyme (Homo sapiens, UniProt Q13547); test: HDAC1 enzyme inhibition assay; format: biochemical
T1 construct: purchased Enzo Life Sciences, Inc. USA
T1 sequence (Q13547 whole entry): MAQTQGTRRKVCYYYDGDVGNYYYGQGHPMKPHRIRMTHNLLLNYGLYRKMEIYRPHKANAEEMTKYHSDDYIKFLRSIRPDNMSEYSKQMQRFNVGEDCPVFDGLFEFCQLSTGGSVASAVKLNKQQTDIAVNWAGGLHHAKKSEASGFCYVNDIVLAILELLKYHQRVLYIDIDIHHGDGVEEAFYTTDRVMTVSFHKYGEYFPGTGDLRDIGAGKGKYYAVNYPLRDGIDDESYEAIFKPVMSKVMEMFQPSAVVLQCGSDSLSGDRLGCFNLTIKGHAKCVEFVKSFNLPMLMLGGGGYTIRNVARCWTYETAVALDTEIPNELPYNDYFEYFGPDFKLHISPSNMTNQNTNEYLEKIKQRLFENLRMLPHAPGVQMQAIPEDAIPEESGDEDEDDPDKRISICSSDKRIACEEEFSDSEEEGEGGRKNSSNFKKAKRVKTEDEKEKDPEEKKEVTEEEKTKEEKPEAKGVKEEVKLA
Protocol: The HDAC1 and 6 assays were carried out with few modifications from the previously described method. In brief, 10 µl of different concentration of test compounds was added to 40 µl of reaction mixture containing HDAC assay buffer, HDAC substrate, and recombinant human HDAC1 and 6 enzymes. The reactions were incubated for 30 min at 37°C. Then, 50 µl of trypsin stop solution was added in each well, and the plate was incubated at room temperature for an additional 20 min. Fluorescence intensity was measured at an excitation of 360 nm and an emission of 460 nm using a fluorescence microplate reader (FLx800, BioTek Instruments Inc. Winooski, VT, USA).

[5] = tested on: caspase 3/7 in HCT116 cells; test: Caspase 3/7 activation assay; format: cell-based, human; conditions: SAHA 5 µM, quercetin 100 µM, QMJ-2 100 µM, QMJ-5 50 µM; for percentage of apoptotic cells (Apoptotic/Dead, caspase 3/7): normal control 24.60%; for percentage of live cells (caspase 3/7): normal control 69.40%
Protocol: The downstream signaling pathway of apoptosis was determined using the caspase 3/7 activation assay. In brief, as per the caspase 3/7 activation kit protocol (#MCH100108), 1 × 10^6 cells were seeded in the cell culture dish and after overnight adherence, were incubated with the test compounds. The cells were detached by trypsinization, centrifuged, and washed with PBS. Cell suspension (50 µl) was mixed with the caspase 3/7 antibody reagent (5 µl) and incubated at 37°C temperature for 30 min. 7-AAD (7-amino-actinomycin D) working solution (150 µl) was added, and stained cells were then analyzed in Muse Cell Analyzer (#0500-3115 Merck Millipore).

[6] = target: T2, recombinant human HDAC8 enzyme (Homo sapiens, UniProt Q9BY41); test: HDAC8 enzyme inhibition assay; format: biochemical; conditions: mean ± SEM of three experiments
T2 construct: purchased Enzo Life Science, NY, USA BML-AK518
T2 sequence (Q9BY41 1-377): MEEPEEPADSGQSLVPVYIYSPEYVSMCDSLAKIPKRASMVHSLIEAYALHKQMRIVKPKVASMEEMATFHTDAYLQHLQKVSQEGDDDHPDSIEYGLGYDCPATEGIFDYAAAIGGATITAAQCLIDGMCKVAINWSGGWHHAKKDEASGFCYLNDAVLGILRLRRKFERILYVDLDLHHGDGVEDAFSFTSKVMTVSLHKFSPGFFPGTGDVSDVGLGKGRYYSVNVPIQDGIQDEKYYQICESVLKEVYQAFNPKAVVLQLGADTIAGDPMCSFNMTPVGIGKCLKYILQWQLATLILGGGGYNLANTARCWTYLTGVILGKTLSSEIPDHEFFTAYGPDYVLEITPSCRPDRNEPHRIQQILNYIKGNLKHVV
Protocol: The enzymatic reaction was conducted as per Enzo Life Science, NY, USA (BML-AK518) kit protocol. In brief, 10 µl of different concentration of test compounds were added to a 40 µl reaction mixture containing the HDAC assay buffer, HDAC8 substrate, and recombinant human HDAC8 enzyme. The reactions were incubated for 20 min at 30°C. Then, 50 µl of the HDAC developer was added in each well, and the plate was incubated at room temperature for an additional 45 min. Fluorescence intensity was measured at an excitation of 360 nm and an emission of 460 nm using a fluorescence microplate reader (FLx800, BioTek Instruments Inc., Winooski, VT, USA).

[7] = mean ± SEM of three experiments, read-out: HDAC1 IC50

Row | Structure (SMILES) | IC50 [1] [µM] | percentage of cells undergoing late apoptosis (Late Apop./Dead, annexin V) (HCT116 cells [2]) [%] | cytotoxicity in HCT116 relative to inhibitory concentration in normal (Vero) cell line (HCT116 cells [3]) | IC50 (HCT116 cells [3]) [µM] | IC50 [4, 7] [µM] | percentage of apoptotic cells (Apoptotic/Dead, caspase 3/7) [5] [%] | percentage of live cells (caspase 3/7) [5] [%] | IC50 [6] [µM] | IC50 ([4]; HDAC1 IC50, mean ± SEM of three experiments) [µM]
1 | Cc1ccc(-c2oc3ccccc3c(=O)c2O)cc1 [QMJ-2, 3-Hydroxy-2-(4-methylphenyl)-4H-1-benzopyran-4-one] | 182 ± 22 | 35.20 | two-fold lower concentration | 68 ± 2.3 | 34.1 ± 3.83 | 55.70 | 37.40 | 36 ± 4.17 | –
2 | Cc1ccc(-c2oc3cc(C)ccc3c(=O)c2O)cc1 [QMJ-5, 3-Hydroxy-7-methyl-2-(4-methylphenyl)-4H-1-benzopyran-4-one] | 70.2 ± 4.3 | 38.65 | two-fold lower concentration | 27.4 ± 1.8 | 47.7 ± 6.3 | 83.55 | 8.05 | 24 ± 2.8 | –
3 | O=c1c(O)c(-c2ccc(O)c(O)c2)oc2cc(O)cc(O)c12 [Quercetin, quercetin, reference compound] | 168 ± 6.9 | 35.80 | – | 108 ± 1.2 | – | 59.65 | – | 15.4 ± 1.53 | 26.7 ± 3.77
